Source: patent US20260174721A1, “AGENT FOR RESTORING METAL HOMEOSTASIS” (Oxford Antibiotic Group GmbH, priority 2022, published 2026)

Tests used:
metallothioneins = details: C. elegans nematode assay; cited from earlier work
[1] = system: transgenic C. elegans strain NL5901; assay: α-synuclein test system: reduction of α-synuclein-GFP expression in transgenic C. elegans strain NL5901 (Parkinson testing); type: in vivo, Caenorhabditis elegans; details: NL5901, GFP readout 24 to 48 hours, tested at 1 mg/ml, 100 μg/ml, 10 μg/ml, — = no effect even at 1 mg/ml; for minimal effective concentration: Caenorhabditis elegans, read-out: Parkinson: concentration range in which a reduction in α-synuclein expression was detectable
Method: (§1) The same substances as above were tested in a 96-well procedure in the initially mentioned screening assay using the nematode Caenorhabditis elegans (Pretsch et al., see above) in a standardized α-synuclein test system using the transgenic C. elegans strain NL5901 for their potential suitability as an agent for treating Parkinson's disease. This worm strain expresses human α-synuclein bound to green fluorescent protein (GFP) in all muscle cells. GFP labeling allows a direct detection of expressed protein levels using a multiplate reader for 24 to 48 hours.
(§2) For this purpose, the substances were again tested at concentrations of 1 mg/ml, 100 μg/ml, and 10 μg/ml, but this time in comparison to the initially mentioned Parkinson therapeutic agent levodopa as a control.

[2] = system: transgenic C. elegans strain CL2659; assay: β-amyloid test system: delay of paralysis in transgenic C. elegans strain CL2659 (Alzheimer testing); type: in vivo, Caenorhabditis elegans; details: CL2659 stage L3 larvae, 48 hours, tested at 1 mg/ml, 100 μg/ml, 10 μg/ml, — = no effect even at 1 mg/ml; for minimal effective concentration: Caenorhabditis elegans, read-out: Alzheimer: concentration range in which a delay in paralysis was observed
Method: For this purpose, stage L3 worm larvae were used at a density of 10-20 worms per well. The expression of β-amyloid in the muscle cells was induced by increasing the temperature, and the associated paralysis was recorded at regular intervals until the end of the test after 48 hours.
(§3) For this purpose, the above substances were tested at concentrations of 1 mg/ml, 100 μg/ml, and 10 μg/ml in comparison with quercetin as a […] control.

Caenorhabditis elegans = assay: C. elegans nematode assay, overall rating over the Alzheimer and Parkinson tests; type: in vivo; details: for minimal effective concentration: Caenorhabditis elegans, read-out: Score
Method: The substances (1) to (41) and (101) to (108), prepared in the above synthesis examples or purchased, were tested for their potential suitability as an agent for treating Alzheimer's disease in a 96-well procedure in the initially mentioned screening assay using the nematode Caenorhabditis elegans (Pretsch et al., see above) in a standardized β-amyloid test system using the transgenic C. elegans strain CL2659. For this purpose, stage L3 worm larvae were used at a density of 10-20 worms per well. The expression of β-amyloid in the muscle cells was induced by increasing the temperature, and the associated paralysis was recorded at regular intervals until the end of the test after 48 hours.
as §3, §1, §2

mouse test model = details: Parkinson's disease; cited from earlier work
[3] = rating from the effective concentration in both tests

SMILES: Cc1cc(O)c2c(c1)C(=O)c1cc(O)cc(O)c1C2=O [emodin, 1,3,8-trihydroxy-6-methylanthracene-9,10-dione]
- body's own biosynthesis of metallothioneins (metallothioneins): prolongation of the body's own biosynthesis of metallothioneins

SMILES: CC12CC3CC(C)(C1)CC(NC(=O)CC(=O)NCCCN1CCOCC1)(C3)C2 [(34), N-(3,5-dimethyladamantan-1-yl)-N′-(3-morpholinopropyl)malonic acid diamide]
- minimal effective concentration [1]: > 10 µg/mL
- minimal effective concentration [2]: > 10 µg/mL
- minimal effective concentration (Caenorhabditis elegans; [3]): 10 to 100 µg/mL

SMILES: NCCCNC(=O)CC(=O)N1CCC2CCCCC2C1 (centres unmarked) [(25), N-(3-aminopropyl)-N′-decahydroisoquinoline malonic acid diamide]
- minimal effective concentration [1]: > 10 µg/mL
- minimal effective concentration [2]: > 10 µg/mL
- minimal effective concentration (Caenorhabditis elegans; [3]): 10 to 100 µg/mL

SMILES: Oc1c(I)cc(Cl)c2cccnc12 [clioquinol, 5-chloro-7-iodoquinolin-8-ol]
- body's own biosynthesis of metallothioneins (metallothioneins): prolongation of the body's own biosynthesis of metallothioneins

SMILES: CCN(CC)C(=S)S [diethyl dithiocarbamate, diethyldithiocarbamate]
- neuroprotective effect / neurotoxicity (mouse test model): higher neurotoxicity

SMILES: O=C(O)CC(=O)O [(1), malonic acid]
- minimal effective concentration [1]: > 100 µg/mL
- minimal effective concentration [2]: > 100 µg/mL
- minimal effective concentration (Caenorhabditis elegans; [3]): > 100 µg/mL
- concentration from which the compound was effective (Caenorhabditis elegans; both tests): > 100 µg/mL

SMILES: NC1CCN(C(=O)CC(=O)OC23CC4CC(CC(C4)C2)C3)CC1 [(14), malonic acid adamantan-1-yl ester 4-aminopiperidine amide]
- minimal effective concentration [1]: > 10 µg/mL
- minimal effective concentration [2]: > 10 µg/mL
- minimal effective concentration (Caenorhabditis elegans; [3]): 10 to 100 µg/mL

SMILES: CN(CCCN)C(=O)CC(=O)NC12CC3CC(CC(C3)C1)C2 [(19), N-adamantan-1-yl-N′-(3-aminopropyl)-N′-methyl malonic acid diamide]
- minimal effective concentration [1]: > 10 µg/mL
- minimal effective concentration [2]: > 10 µg/mL
- minimal effective concentration (Caenorhabditis elegans; [3]): 10 to 100 µg/mL

SMILES: CN(C)CCCNC(=O)CC(=O)OC12CC3CC(CC(C3)C1)C2 [(27), malonic acid adamantan-1-yl ester N-(3-dimethylaminopropyl)amide]
- minimal effective concentration [1]: > 10 µg/mL
- minimal effective concentration [2]: > 10 µg/mL
- minimal effective concentration (Caenorhabditis elegans; [3]): 10 to 100 µg/mL

SMILES: CC12CC3CC(C)(C1)CC(NC(=O)CC(=O)O)(C3)C2 [(32), malonic acid N-(3,5-dimethyl)adamantan-1-yl amide]
- minimal effective concentration [1]: > 10 µg/mL
- minimal effective concentration [2]: > 10 µg/mL
- minimal effective concentration (Caenorhabditis elegans; [3]): 10 to 100 µg/mL

SMILES: O=C([O-])CC(=O)[O-].[Na+].[Na+] [(3), disodium malonate]
- Parkinson: concentration range in which a reduction in α-synuclein expression was detectable [1]: >10 µg/mL
- Alzheimer: concentration range in which a delay in paralysis was observed [2]: >10 µg/mL
- Score (Caenorhabditis elegans; [3]): ++ (a compound that is already effective at a concentration >10 μg/ml and therefore rated “++”)

SMILES: O=C(CC(=O)OC12CC3CC(CC(C3)C1)C2)NCCCN1CCOCC1 [(28), malonic acid adamantan-1-yl ester N-(3-morpholinopropyl)amide]
- minimal effective concentration [1]: > 10 µg/mL
- minimal effective concentration [2]: > 10 µg/mL
- minimal effective concentration (Caenorhabditis elegans; [3]): 10 to 100 µg/mL

SMILES: CN(CCCN)C(=O)CC(=O)OC12CC3CC(CC(C3)C1)C2 [(11), malonic acid adamantan-1-yl ester N-(3-aminopropyl)-N-methylamide]
- minimal effective concentration [1]: > 10 µg/mL
- minimal effective concentration [2]: > 10 µg/mL
- minimal effective concentration (Caenorhabditis elegans; [3]): 10 to 100 µg/mL

SMILES: CC12CC3CC(C)(C1)CC(NC(=O)CC(=O)NCCCN)(C3)C2 [(33), N-(3,5-dimethyladamantan-1-yl)-N′-(3-aminopropyl)malonic acid diamide]
- minimal effective concentration [1]: > 10 µg/mL
- minimal effective concentration [2]: > 10 µg/mL
- minimal effective concentration (Caenorhabditis elegans; [3]): 10 to 100 µg/mL

SMILES: NCCCC(=O)N1CCN(C(=O)CC(=O)NC23CC4CC(CC(C4)C2)C3)CC1 [(21), N-adamantan-1-yl-N′-(4-(4-aminobutyryl)piperazine)malonic acid diamide]
- minimal effective concentration [1]: > 10 µg/mL
- minimal effective concentration [2]: > 10 µg/mL
- minimal effective concentration (Caenorhabditis elegans; [3]): 10 to 100 µg/mL

SMILES: CC(C)(S)[C@@H](N)C(=O)O [D-penicillamine, 2-amino-3-mercapto-3-methyl butanoic acid]
- neuroprotective effect / neurotoxicity (mouse test model): did not show any neuroprotective effect

SMILES: COC(=O)CC(=O)NC12CC3CC(CC(C3)C1)C2 [(16), malonic acid methyl ester N-(adamantan-1-yl)amide]
- minimal effective concentration [1]: > 10 µg/mL
- minimal effective concentration [2]: > 10 µg/mL
- minimal effective concentration (Caenorhabditis elegans; [3]): 10 to 100 µg/mL

SMILES: CCOC(=O)CC(=O)OC12CC3CC(CC(C3)C1)C2 [(9), malonic acid adamantan-1-yl ethyl ester]
- minimal effective concentration [1]: > 10 µg/mL
- minimal effective concentration [2]: > 10 µg/mL
- minimal effective concentration (Caenorhabditis elegans; [3]): 10 to 100 µg/mL
